From patent US20260224563A1, “CRYSTALLINE FORMS OF 6-(3-((5-CHLORO-2-METHOXYPYRIDINE)-3-SULFONAMIDO)-2,6-DIFLUOROPHENYL)-N-METHYLIMIDAZO[1,5-A]PYRAZINE-1-CARBOXAMIDE AND METHODS FOR USING THE SAME” (HIBERCELL, INC., priority 2023, published 2026)
Counter-ions that a name gives are not always drawn.

How the values were obtained:
Format in all cases: physicochemical
[1] = Solid-state stability (60° C./closed and 40° C./75% relative humidity open, up to seven days; HPLC purity, XRPD); details: for physical and chemical stability: both closed (60° C.) and open (40° C./75% RH) conditions for seven days
Description: HPLC method for stability and solubility testing is listed below.
• Column: Ascentis® Express C18 4.6*150 mm*2.7 μm • Mobile Phase A: 0.05% trifluoroacetic acid in water • Mobile Phase B: Methanol • Gradient (T/B %): 0/10, 10/100, 13.5/10, 15/10 • Column Temperature: 40° C. • Detector: DAD; 220 nm • Flow rate: 1.0 mL/min • Injection volume: 1 μL • Concentration: 1 mg/mL • Run time: 15 minutes • Diluent: Methanol:Water 9:1 (v/v)
The solid-state stability of Form III of the potassium salt was performed using the following protocol: • (1) A sample of Form III of the potassium salt was placed at 60° C./closed and 40° C./75% relative humidity (open) conditions for up to seven days. At the onset of the test (day 0) and day 7 of the test, the sample was dissolved in a diluent to prepare a 1 mg/mL solution for HPLC purity analysis. The solid sample was analyzed by XRPD to assess the crystal form of each solid at day 7. […] The XRPD data confirmed the physicochemical stability of Form III of the potassium salt under both closed and open conditions. […]

[2] = Dynamic vapor sorption (DVS); details: for DVS weight gain: 25° C.
Description: Moisture sorption/desorption data was collected on a Vsorp Dynamic Moisture Sorption Analyzer (ProUmid GmbH & Co. KG, Germany). The sample was placed into a tared sample chamber and automatically weighed.
• Equilibrium Condition: 0.01%/40 min • Time between weighing cycles: 10 minutes • Minimum time per climate cycle: 50 minutes • Maximum time per climate cycle: 2.0 hour • Balanced condition: 25° C. at 60% […] for 4 hours • Sample temperature: 25° C. • Adsorption: 70, 80, 90 • Desorption: 80, 70, 60, 50, 40, 30, 20, 10, 0 • Adsorption: 10, 20, 30, 40, 50, 60

[3] = Solubility in simulated biological fluid (FaSSGF and FaSSIF) at 37° C., HPLC; pH of filtrate, XRPD of filter cake; details: for pH (0 h) / Concentration / pH (24 h) / XRPD (filter cake, crystal form): 37° C.; for pH (24 h): filtrate; for XRPD (filter cake, crystal form): up to 24 hours; for times more soluble than the free acid (Form II): 0.5-hour mark
Description: (§1) Approximately between 15 mg and 24 mg of sample was suspended in 5 mL or 8 mL of FaSSGF or FaSSIF, respectively. The resulting suspension was shaken at 700 rpm with a QQMSC-100 shaker at 37° C. The suspension was sampled and filtered at certain time intervals, which was achieved by sampling 1000 μL of each suspension which was then filtered and diluted, diluting the resulting filtrate for HPLC analysis to assess solubility. The pH of the filtrate was measured, and the filter cake was analyzed by XRPD.
as §1, with “Approximately” for “Approximately between”, “mg to” for “mg and”, “5” for “5 mL”, “suspension” for “suspension which”, “was” for “was then”
Approximately 15 mg to 24 mg of sample was suspended in 5 or 8 mL of FaSSGF or FaSSIF, respectively. The resulting suspension was shaken at 700 rpm with a QQMSC-100 shaker at 37° C. The suspension was sampled and filtered in certain time interval, which was achieved by sampling 1000 μL of each suspension was filtered and diluted, diluting the resulting filtrate for HPLC analysis to assess solubility. The pH of the filtrate was measured, and the filter cake was analyzed by XRPD.

[4] = Water activity study of the crystalline potassium salt forms (acetone/water suspension, XRPD); details: for Relative stability of crystalline forms: versus Form III of the potassium salt
Description: A water activity study of the potassium salt forms was conducted in two groups: (i) Form I and Form III of the potassium salt, and (ii) Form II and Form III of the potassium salt.
Each suspension was shaken at 700 rpm in a shaker at 25° C., 35° C., 45° C., and 50° C., and the sample was analyzed by XRPD.

[5] = Heating of potassium salt forms (XRPD/DSC after heating)

CNC(=O)c1ncn2cc(-c3c(F)ccc(NS(=O)(=O)c4cc(Cl)cnc4OC)c3F)ncc12 [Free acid Form II, 6-(3-((5-chloro-2-methoxypyridine)-3-sulfonamido)-2,6-difluorophenyl)-N-methylimidazo[1,5-a]pyrazine-1-carboxamide]
Purity (Area %) 220 nm ([1]; 0 day): 99.96 Area %
Purity (Area %) 220 nm ([1]; 40° C./75% RH (open), 7 days): 99.94 Area %
Purity (Area %) 220 nm ([1]; 60° C./closed, 7 days): 99.94 Area %
physical and chemical stability [1]: maintained physical and chemical stability
DVS weight gain ([2]; 0 to 90% relative humidity): ~0%
DVS weight gain ([2]; 0 to 90% relative humidity, listed as Form II of the free acid): almost no weight gain
Hygroscopicity (DVS) ([2]; class by weight gain to 80% relative humidity): Non-hygroscopic
XRPD pattern after DVS testing ([2]; listed as Form II of the free acid): No changes
Hygroscopicity (DVS) ([2]; relative to the class slightly hygroscopic): below slightly hygroscopic
pH (0 h) ([3]; FaSSGF): 1.60
Concentration ([3]; FaSSGF, 0.5 h): 200 ng/mL
Concentration ([3]; FaSSGF, 2.0 h): 300 ng/mL
Concentration ([3]; FaSSGF, 24 h): 1500 ng/mL
pH (24 h) ([3]; FaSSGF): 1.57
XRPD (filter cake, crystal form) ([3]; FaSSGF): Unchanged
pH (0 h) ([3]; FaSSIF): 6.50
Concentration ([3]; FaSSIF, 0.25 h): 3000 ng/mL
Concentration ([3]; FaSSIF, 0.5 h): 1400 ng/mL
Concentration ([3]; FaSSIF, 0.75 h): 1300 ng/mL
Concentration ([3]; FaSSIF, 1.0 h): 1300 ng/mL
Concentration ([3]; FaSSIF, 2.0 h): 1600 ng/mL
Concentration ([3]; FaSSIF, 24 h): 4000 ng/mL
pH (24 h) ([3]; FaSSIF): 6.49
XRPD (filter cake, crystal form) ([3]; FaSSIF): Unchanged

CNC(=O)c1ncn2cc(-c3c(F)ccc(NS(=O)(=O)c4cc(Cl)cnc4OC)c3F)ncc12 [Sodium salt Form III, 6-(3-((5-chloro-2-methoxypyridine)-3-sulfonamido)-2,6-difluorophenyl)-N-methylimidazo[1,5-a]pyrazine-1-carboxamide]
Purity (Area %) 220 nm ([1]; 0 day): 99.87 Area %
Purity (Area %) 220 nm ([1]; 40° C./75% RH (open), 7 days): 99.87 Area %
Purity (Area %) 220 nm ([1]; 60° C./closed, 7 days): 99.85 Area %
physical and chemical stability [1]: maintained physical and chemical stability
DVS weight gain ([2]; 0 to 30% relative humidity): 2.6%
DVS weight gain ([2]; 0 to 30% relative humidity, listed as Form III of the sodium salt): around 2.6%
DVS weight gain ([2]; 0 to 80% relative humidity): 3.3%
DVS weight gain ([2]; 0 to 90% relative humidity): 4.7%
DVS weight gain ([2]; 60 to 80% relative humidity, listed as Form III of the sodium salt): around 0.7%
DVS weight gain ([2]; 80 to 90% relative humidity): 1.4%
XRPD pattern after DVS testing ([2]; listed as Form III of the sodium salt): did not change
times more soluble than the free acid (Form II) ([3]; FaSSGF): about 230 times
times more soluble than the free acid (Form II) ([3]; FaSSIF): about 100 times

CNC(=O)c1ncn2cc(-c3c(F)ccc(NS(=O)(=O)c4cc(Cl)cnc4OC)c3F)ncc12 [Potassium salt Form II, 6-(3-((5-chloro-2-methoxypyridine)-3-sulfonamido)-2,6-difluorophenyl)-N-methylimidazo[1,5-a]pyrazine-1-carboxamide]
Relative stability of crystalline forms ([4]; aw≥0.93 at temperatures≤25° C.): more stable
Changes to XRPD patterns and DSC thermograms after heating ([5]; heating to 160° C.): slight change

CNC(=O)c1ncn2cc(-c3c(F)ccc(NS(=O)(=O)c4cc(Cl)cnc4OC)c3F)ncc12 [Potassium salt Form I, 6-(3-((5-chloro-2-methoxypyridine)-3-sulfonamido)-2,6-difluorophenyl)-N-methylimidazo[1,5-a]pyrazine-1-carboxamide]
Time of conversion to Form III of the potassium salt ([4]; KF wt. %>0.19, 25-50° C., KF wt. %~0.1, 25° C. in acetone/water): ≤ 1 days
Relative stability of crystalline forms ([4]; KF wt. %≤0.1 at 35-50° C. in acetone/water): more stable
Stability of the hydrate ([5]; 24° C.±2° C. and 50-80% relative humidity): stable
Changes to XRPD pattern or DSC thermogram upon heating ([5]; heating to 180° C.): No changes
